{
  "source": "ChEMBL document CHEMBL3351946",
  "about": "“Design and synthesis of potent antitumor water-soluble phenyl N-mustard-benzenealkylamide conjugates via a bioisostere approach” (Eur J Med Chem, 2014)",
  "key": {"[1]": {"test": "Cytotoxicity against human PC3 cells assessed as growth inhibition after 72 hrs by Alamar Blue assay", "type": "functional, cell-based", "settings": "PC-3, 72 h"}, "[2]": {"test": "Antitumor activity against human PC3 cells xenografted in nude mouse assessed as tumor growth inhibition at 40 mg/kg,iv administered every 2 days for 5 doses measured on day 21 relative to control", "type": "functional, PC-3"}, "[3]": {"test": "Cytotoxicity against human H460 cells assessed as growth inhibition after 72 hrs by Alamar Blue assay", "type": "functional, cell-based", "settings": "NCI-H460, 72 h"}, "[4]": {"test": "Cytotoxicity against human H1299 cells assessed as growth inhibition after 72 hrs by Alamar Blue assay", "type": "functional, cell-based", "settings": "NCI-H1299, 72 h"}, "[5]": {"test": "Cytotoxicity against human DLD1 cells assessed as growth inhibition after 72 hrs by Alamar Blue assay", "type": "functional, cell-based", "settings": "DLD-1, 72 h"}, "[6]": {"test": "Antitumor activity against human H3347 cells xenografted in nude mouse assessed as tumor growth inhibition at 30 mg/kg,iv qd administered for 6 days measured on day 15 relative to control", "type": "functional"}, "[7]": {"test": "Antitumor activity against human PC3 cells xenografted in nude mouse assessed as tumor growth inhibition at 30 mg/kg,iv qd administered for 6 days measured on day 21 relative to control", "type": "functional, PC-3"}, "[8]": {"test": "Antitumor activity against human PC3 cells xenografted in nude mouse assessed as tumor growth inhibition at 50 mg/kg,iv administered every 2 days for 5 doses measured on day 24 to 28 relative to control", "type": "functional, PC-3"}, "[9]": {"test": "Antitumor activity against human H460 cells xenografted in nude mouse assessed as tumor growth inhibition at 30 mg/kg,iv qd administered for 6 days measured on day 19 to 26 relative to control", "type": "functional, NCI-H460"}, "[10]": {"test": "Antitumor activity against human PC3 cells xenografted in nude mouse assessed as tumor growth inhibition at 50 mg/kg,iv administered every 2 days for 5 doses measured on day 38 relative to control", "type": "functional", "settings": "PC-3, iv, read-out: TGI"}, "Mus musculus [11]": {"system": "Mus musculus", "test": "Toxicity in nude mouse xenografted with human H460 cells assessed as body weight loss at 30 mg/kg,iv qd administered for 6 days measured on day 15 relative to control", "type": "organism-based", "design": "dose 30 mg/kg", "settings": "in vivo, 144 h"}, "Mus musculus [12]": {"system": "Mus musculus", "test": "Toxicity in nude mouse xenografted with human H3347 cells assessed as body weight loss at 30 mg/kg,iv qd administered for 6 days measured on day 13 relative to control", "type": "organism-based", "design": "dose 30 mg/kg", "settings": "in vivo, 144 h"}, "Mus musculus [13]": {"system": "Mus musculus", "test": "Toxicity in nude mouse xenografted with human H460 cells assessed as body weight loss at 30 mg/kg,iv qd administered for 6 days measured on day 37 relative to control", "type": "organism-based", "design": "dose 30 mg/kg", "settings": "in vivo, 144 h"}, "HCT-116 [14]": {"system": "HCT-116", "test": "Antitumor activity against human HCT116 cells xenografted in nude mouse assessed as survival at 30 mg/kg,iv qd administered for 6 days", "type": "functional, organism-based", "design": "dose 30 mg/kg"}, "PC-3 [15]": {"system": "PC-3", "test": "Antitumor activity against human PC3 cells xenografted in nude mouse assessed as survival at 40 mg/kg,iv administered every 2 days for 5 doses", "type": "functional, organism-based", "design": "dose 40 mg/kg"}, "NCI-H460": {"system": "NCI-H460", "test": "Antitumor activity against human H460 cells xenografted in nude mouse assessed as survival at 30 mg/kg,iv qd administered for 6 days", "type": "functional, organism-based", "design": "dose 30 mg/kg"}, "PC-3 [16]": {"system": "PC-3", "test": "Antitumor activity against human PC3 cells xenografted in iv dosed nude mouse assessed as tumor growth inhibition", "type": "functional, organism-based"}, "[17]": {"test": "Induction of pEGFP-N1 DNA (unknown origin) interstand crosslinking after 2 hrs by alkaline agarose gel shift assay"}, "[18]": {"test": "Cell cycle arrest in human HCT116 cells assessed as accumulation at G2/M phase at 1 uM after 24 hrs by FACS flow cytometric analysis (reference value: 31.55 +/- 4.63%)", "type": "functional, cell-based", "settings": "HCT-116"}, "[19]": {"test": "Cell cycle arrest in human HCT116 cells assessed as accumulation at sub-G1 phase at 2 uM after 24 hrs by FACS flow cytometric analysis (reference value: 1.37 +/- 0.95%)", "type": "functional, cell-based", "settings": "HCT-116"}, "[20]": {"test": "Cell cycle arrest in human HCT116 cells assessed as accumulation at S phase at 2 uM after 24 hrs by FACS flow cytometric analysis (reference value: 18.71 +/- 2.25%)", "type": "functional, cell-based", "settings": "HCT-116"}, "[21]": {"test": "Cell cycle arrest in human HCT116 cells assessed as accumulation at sub-G1 phase at 4 uM after 24 hrs by FACS flow cytometric analysis (reference value: 1.37 +/- 0.95%)", "type": "functional, cell-based", "settings": "HCT-116"}, "[22]": {"test": "Cell cycle arrest in human HCT116 cells assessed as accumulation at G1 phase at 4 uM after 24 hrs by FACS flow cytometric analysis (reference value: 48.75 +/- 3.69%)", "type": "functional, cell-based", "settings": "HCT-116"}, "[23]": {"test": "Cell cycle arrest in human HCT116 cells assessed as accumulation at S phase at 2 uM after 48 hrs by FACS flow cytometric analysis (reference value: 12.11 +/- 4.28%)", "type": "functional, cell-based", "settings": "HCT-116"}, "[24]": {"test": "Cell cycle arrest in human HCT116 cells assessed as accumulation at G2/M phase at 2 uM after 48 hrs by FACS flow cytometric analysis (reference value: 23.95 +/- 1.87%)", "type": "functional, cell-based", "settings": "HCT-116"}, "[25]": {"test": "Cell cycle arrest in human HCT116 cells assessed as accumulation at sub-G1 phase at 4 uM after 48 hrs by FACS flow cytometric analysis (reference value: 1.65 +/- 0.06%)", "type": "functional, cell-based", "settings": "HCT-116"}, "[26]": {"test": "Cell cycle arrest in human HCT116 cells assessed as accumulation at sub-G1 phase at 4 uM after 72 hrs by FACS flow cytometric analysis (reference value: 3.29 +/- 1.39%)", "type": "functional, cell-based", "settings": "HCT-116"}, "[27]": {"test": "Cell cycle arrest in human HCT116 cells assessed as accumulation at G1 phase at 4 uM after 72 hrs by FACS flow cytometric analysis (reference value: 76.29 +/- 2.65%)", "type": "functional, cell-based", "settings": "HCT-116"}, "[28]": {"test": "Cell cycle arrest in human HCT116 cells assessed as accumulation at S phase at 4 uM after 72 hrs by FACS flow cytometric analysis (reference value: 7.49 +/- 0.95%)", "type": "functional, cell-based", "settings": "HCT-116"}, "[29]": {"test": "Cell cycle arrest in human HCT116 cells assessed as accumulation at G2/M phase at 4 uM after 72 hrs by FACS flow cytometric analysis (reference value: 12.82 +/- 2.19%)", "type": "functional, cell-based", "settings": "HCT-116"}, "[30]": {"test": "Cell cycle arrest in human HCT116 cells assessed as accumulation at G2/M phase after 24 hrs by FACS flow cytometric analysis", "type": "functional, cell-based", "settings": "HCT-116"}, "HCT-116 [31]": {"system": "HCT-116", "test": "Induction of apoptosis in human HCT116 cells assessed as PARP cleavage at 1 to 4 uM after 24 hrs by Western blot analysis", "type": "functional, cell-based"}, "[32]": {"test": "Terminal half life in Sprague-Dawley rat at 50 mg/kg, po", "type": "ADME, organism-based", "design": "dose 50 mg/kg, route oral", "settings": "in vivo, read-out: beta t1/2 (converted)"}, "[33]": {"test": "Oral bioavailability in Sprague-Dawley rat at 50 mg/kg", "type": "ADME, organism-based", "settings": "in vivo"}, "Mus musculus [34]": {"system": "Mus musculus", "test": "Toxicity in iv dosed CD-1 (ICR) mouse assessed as hypoactivity measured for 14 days", "type": "organism-based", "settings": "in vivo, 336 h"}, "Mus musculus [35]": {"system": "Mus musculus", "test": "Toxicity in iv dosed CD-1 (ICR) mouse assessed as feces stain measured for 14 days", "type": "organism-based", "settings": "in vivo, 336 h"}, "Mus musculus [36]": {"system": "Mus musculus", "test": "Toxicity in CD-1 (ICR) mouse assessed as decrease in food consumption at 75 to 105 mg/kg, iv measured on day 8", "type": "organism-based", "design": "dose 75-105 mg/kg, route intravenous", "settings": "in vivo"}, "Mus musculus [37]": {"system": "Mus musculus", "test": "Toxicity in CD-1 (ICR) mouse assessed as gross lesions in thymus at 150 mg/kg, iv measured for 14 days", "type": "organism-based", "design": "dose 150 mg/kg, route intravenous", "settings": "in vivo, 336 h"}, "[38]": {"biological_target": "Voltage-gated inwardly rectifying potassium channel KCNH2 (Homo sapiens, UniProt Q12809)", "sequence (Q12809 whole entry)": "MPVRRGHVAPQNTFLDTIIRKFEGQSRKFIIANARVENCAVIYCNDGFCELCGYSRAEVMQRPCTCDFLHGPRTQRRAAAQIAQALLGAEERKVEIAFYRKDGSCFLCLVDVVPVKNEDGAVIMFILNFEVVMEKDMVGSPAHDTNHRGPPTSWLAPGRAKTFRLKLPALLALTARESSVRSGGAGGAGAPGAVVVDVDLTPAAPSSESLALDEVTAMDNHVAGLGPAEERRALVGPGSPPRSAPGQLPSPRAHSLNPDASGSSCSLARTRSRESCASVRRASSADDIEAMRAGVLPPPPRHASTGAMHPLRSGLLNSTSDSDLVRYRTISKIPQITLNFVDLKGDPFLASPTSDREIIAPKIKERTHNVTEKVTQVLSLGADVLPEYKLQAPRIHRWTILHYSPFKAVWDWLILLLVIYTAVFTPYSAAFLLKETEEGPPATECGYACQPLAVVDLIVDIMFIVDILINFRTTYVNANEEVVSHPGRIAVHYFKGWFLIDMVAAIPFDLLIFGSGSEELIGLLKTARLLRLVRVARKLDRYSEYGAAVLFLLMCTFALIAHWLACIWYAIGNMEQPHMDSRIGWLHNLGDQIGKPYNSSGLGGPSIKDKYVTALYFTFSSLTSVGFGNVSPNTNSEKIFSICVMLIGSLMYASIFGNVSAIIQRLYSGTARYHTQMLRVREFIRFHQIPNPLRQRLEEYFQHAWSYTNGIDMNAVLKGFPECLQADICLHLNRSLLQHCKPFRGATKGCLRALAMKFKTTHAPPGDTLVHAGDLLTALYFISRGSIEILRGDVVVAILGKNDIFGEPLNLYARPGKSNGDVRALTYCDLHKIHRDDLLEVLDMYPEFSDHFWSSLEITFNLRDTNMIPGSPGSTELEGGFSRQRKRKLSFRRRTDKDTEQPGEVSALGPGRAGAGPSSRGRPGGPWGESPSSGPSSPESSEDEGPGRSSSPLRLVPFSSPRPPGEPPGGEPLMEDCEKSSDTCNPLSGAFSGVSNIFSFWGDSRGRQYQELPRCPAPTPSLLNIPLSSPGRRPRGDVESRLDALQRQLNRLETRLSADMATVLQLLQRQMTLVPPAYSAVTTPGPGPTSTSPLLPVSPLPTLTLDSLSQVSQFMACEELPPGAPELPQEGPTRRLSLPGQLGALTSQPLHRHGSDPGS", "test": "Binding affinity to human ERG after 4 hrs by fluorescence polarization assay"}},
  "note": "pIC50: −log10 of the molar value. Activity calls are given as the source filed them. The calls are words filed in the database; no cut-off is given here.",
  "data": [
    {"compound": "CCN(CC)CC(=O)Nc1ccc(NC(=O)Nc2ccc(N(CCCl)CCCl)cc2)cc1", "values": [
      {"measurement": "pIC50", "setting": "[1]", "value": 5.45},
      {"measurement": "%max", "setting": "[2]", "value": 68, "unit": "%"},
      {"measurement": "pIC50", "setting": "[3]", "value": 6.03},
      {"measurement": "pIC50", "setting": "[4]", "value": 5.46},
      {"measurement": "pIC50", "setting": "[5]", "value": 5.41},
      {"measurement": "%max", "setting": "[6]", "value": 94, "unit": "%"},
      {"measurement": "%max", "setting": "[7]", "value": 56, "unit": "%"},
      {"measurement": "%max", "setting": "[8]", "value": 88, "unit": "%"},
      {"measurement": "%max", "setting": "[9]", "value": 61, "unit": "%"},
      {"measurement": "inhibition in vivo at 50 mg/kg", "setting": "[10]", "value": 62, "unit": "%"},
      {"measurement": "%max", "setting": "Mus musculus [11]", "value": -18, "unit": "%"},
      {"measurement": "Activity", "setting": "Mus musculus [12]", "value": 10, "unit": "%"},
      {"measurement": "Activity", "setting": "Mus musculus [13]", "value": -5, "unit": "%"},
      {"measurement": "Activity", "setting": "HCT-116 [14]", "value": "Active"},
      {"measurement": "Activity", "setting": "PC-3 [15]", "value": "Active"},
      {"measurement": "Activity", "setting": "NCI-H460", "value": "Active"},
      {"measurement": "TGI", "setting": "PC-3 [16]", "value": "Dose-dependent effect"},
      {"measurement": "Activity", "setting": "[17]", "value": "Dose-dependent effect"},
      {"measurement": "Activity", "setting": "[18]", "value": 63.2, "unit": "%"},
      {"measurement": "Activity", "setting": "[19]", "value": 1.55, "unit": "%"},
      {"measurement": "Activity", "setting": "[20]", "value": 23.9, "unit": "%"},
      {"measurement": "Activity", "setting": "[21]", "value": 4.31, "unit": "%"},
      {"measurement": "Activity", "setting": "[22]", "value": 12.8, "unit": "%"},
      {"measurement": "Activity", "setting": "[23]", "value": 11.9, "unit": "%"},
      {"measurement": "Activity", "setting": "[24]", "value": 28.2, "unit": "%"},
      {"measurement": "Activity", "setting": "[25]", "value": 10.5, "unit": "%"},
      {"measurement": "Activity", "setting": "[26]", "value": 17.9, "unit": "%"},
      {"measurement": "Activity", "setting": "[27]", "value": 18.1, "unit": "%"},
      {"measurement": "Activity", "setting": "[28]", "value": 19.8, "unit": "%"},
      {"measurement": "Activity", "setting": "[29]", "value": 41.4, "unit": "%"},
      {"measurement": "Activity", "setting": "[30]", "value": "Dose-dependent effect"},
      {"measurement": "Activity", "setting": "HCT-116 [31]", "value": "Active"},
      {"measurement": "half-life", "setting": "[32]", "value": 1.01, "unit": "h"},
      {"measurement": "bioavailability", "setting": "[33]", "value": 5.32, "unit": "%"},
      {"measurement": "Activity", "setting": "Mus musculus [34]", "value": "Dose-dependent effect"},
      {"measurement": "Activity", "setting": "Mus musculus [35]", "value": "Dose-dependent effect"},
      {"measurement": "Activity", "setting": "Mus musculus [36]", "value": "Toxic"},
      {"measurement": "Activity", "setting": "Mus musculus [37]", "value": "Toxic"},
      {"measurement": "Activity", "setting": "[38]", "value": 4.48, "unit": "µM"}
    ]}
  ]
}
